What was measured:
CBP = target: T1, CBP (Homo sapiens, UniProt Q92793); test: CBP degradation, HiBit technology in A549 CBP HiBit cells (24 h); type: cell-based; details: 24 hrs post treatment
T1 construct: host or cells: A549 CBP HiBit cells
Summary of the method: (§1)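 A549 HiBiT knock-in cells seeded overnight at 37 °C, 5% CO2 in F-12K with 10% heat-inactivated FBS, then given serial dilutions of compound from 10 mM DMSO stocks. Lytic HiBiT detection reagent added for 10 min at room temperature; luminescence read. Potency and Dmax reported.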

p300 = target: T2, p300 (Homo sapiens, UniProt Q09472); test: P300 degradation, HiBit technology in A549 P300 HiBit cells (2 h); type: cell-based; details: 2 hrs post treatment; for Dmax: A549, A549 P300 HiBit cells; for DC50: A549 P300 HiBit cells
T2 construct: host or cells: A549 P300 HiBit cells
Summary of the method: as §1

T2 sequence (Q09472 whole entry): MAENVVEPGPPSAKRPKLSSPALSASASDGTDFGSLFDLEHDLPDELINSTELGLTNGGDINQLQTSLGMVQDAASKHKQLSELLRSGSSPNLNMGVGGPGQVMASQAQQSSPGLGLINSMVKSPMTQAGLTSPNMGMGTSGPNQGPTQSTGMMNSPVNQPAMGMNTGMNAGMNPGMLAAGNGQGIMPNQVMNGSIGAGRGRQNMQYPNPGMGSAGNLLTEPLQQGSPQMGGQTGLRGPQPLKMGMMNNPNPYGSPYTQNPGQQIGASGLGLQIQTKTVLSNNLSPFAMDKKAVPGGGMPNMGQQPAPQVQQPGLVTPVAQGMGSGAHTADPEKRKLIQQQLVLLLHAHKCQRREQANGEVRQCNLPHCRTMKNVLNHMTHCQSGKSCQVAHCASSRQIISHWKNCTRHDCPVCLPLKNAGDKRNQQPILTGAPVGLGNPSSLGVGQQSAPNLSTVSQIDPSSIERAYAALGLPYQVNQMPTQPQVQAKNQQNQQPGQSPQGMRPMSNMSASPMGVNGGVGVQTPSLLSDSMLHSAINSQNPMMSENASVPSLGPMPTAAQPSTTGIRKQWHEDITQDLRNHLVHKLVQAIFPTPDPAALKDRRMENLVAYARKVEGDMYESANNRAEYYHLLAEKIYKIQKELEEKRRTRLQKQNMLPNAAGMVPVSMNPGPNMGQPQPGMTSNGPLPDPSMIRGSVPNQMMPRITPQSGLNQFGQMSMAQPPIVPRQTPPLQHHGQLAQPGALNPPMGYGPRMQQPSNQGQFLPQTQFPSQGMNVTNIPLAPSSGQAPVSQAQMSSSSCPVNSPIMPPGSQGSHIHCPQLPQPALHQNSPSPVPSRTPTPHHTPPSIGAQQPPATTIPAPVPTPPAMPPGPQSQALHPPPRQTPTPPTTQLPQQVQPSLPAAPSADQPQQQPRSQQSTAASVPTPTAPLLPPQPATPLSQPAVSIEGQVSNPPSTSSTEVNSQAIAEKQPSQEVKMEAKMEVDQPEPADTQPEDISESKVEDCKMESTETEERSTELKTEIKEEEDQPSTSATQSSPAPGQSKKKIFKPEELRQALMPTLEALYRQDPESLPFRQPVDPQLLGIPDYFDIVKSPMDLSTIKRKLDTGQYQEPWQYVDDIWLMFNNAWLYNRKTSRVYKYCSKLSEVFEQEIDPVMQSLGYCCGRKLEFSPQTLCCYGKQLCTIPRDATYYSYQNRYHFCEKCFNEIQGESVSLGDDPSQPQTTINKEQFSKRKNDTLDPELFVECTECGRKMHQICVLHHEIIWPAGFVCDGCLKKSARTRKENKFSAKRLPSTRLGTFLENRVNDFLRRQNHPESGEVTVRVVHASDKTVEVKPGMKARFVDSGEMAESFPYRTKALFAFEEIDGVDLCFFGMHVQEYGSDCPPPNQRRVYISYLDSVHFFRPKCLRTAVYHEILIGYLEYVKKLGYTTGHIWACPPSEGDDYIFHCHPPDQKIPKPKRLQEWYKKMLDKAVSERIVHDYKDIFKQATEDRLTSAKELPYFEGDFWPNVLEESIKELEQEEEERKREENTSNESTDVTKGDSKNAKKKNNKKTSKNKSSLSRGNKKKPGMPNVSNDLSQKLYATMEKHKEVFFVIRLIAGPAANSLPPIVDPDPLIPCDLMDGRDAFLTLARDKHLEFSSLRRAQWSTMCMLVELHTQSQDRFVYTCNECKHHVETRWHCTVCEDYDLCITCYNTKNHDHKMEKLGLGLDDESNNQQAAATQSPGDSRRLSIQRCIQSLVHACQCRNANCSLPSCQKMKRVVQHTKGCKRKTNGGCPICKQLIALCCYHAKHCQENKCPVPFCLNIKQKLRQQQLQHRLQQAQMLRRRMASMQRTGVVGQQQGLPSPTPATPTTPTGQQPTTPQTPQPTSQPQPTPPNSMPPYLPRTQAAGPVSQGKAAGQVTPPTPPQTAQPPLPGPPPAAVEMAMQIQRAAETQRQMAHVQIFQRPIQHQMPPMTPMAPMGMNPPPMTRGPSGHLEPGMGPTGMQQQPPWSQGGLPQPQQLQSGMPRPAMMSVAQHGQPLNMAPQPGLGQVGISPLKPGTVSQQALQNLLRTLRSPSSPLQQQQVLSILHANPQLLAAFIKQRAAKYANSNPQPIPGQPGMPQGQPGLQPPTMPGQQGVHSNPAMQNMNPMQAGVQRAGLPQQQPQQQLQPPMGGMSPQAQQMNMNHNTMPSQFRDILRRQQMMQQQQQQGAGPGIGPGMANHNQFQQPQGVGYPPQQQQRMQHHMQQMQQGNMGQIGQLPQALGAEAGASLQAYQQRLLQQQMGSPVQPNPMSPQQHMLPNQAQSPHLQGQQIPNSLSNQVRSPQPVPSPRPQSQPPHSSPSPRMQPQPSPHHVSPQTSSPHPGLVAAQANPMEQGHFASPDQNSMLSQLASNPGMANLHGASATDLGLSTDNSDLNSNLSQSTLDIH
T1 sequence (Q92793 whole entry): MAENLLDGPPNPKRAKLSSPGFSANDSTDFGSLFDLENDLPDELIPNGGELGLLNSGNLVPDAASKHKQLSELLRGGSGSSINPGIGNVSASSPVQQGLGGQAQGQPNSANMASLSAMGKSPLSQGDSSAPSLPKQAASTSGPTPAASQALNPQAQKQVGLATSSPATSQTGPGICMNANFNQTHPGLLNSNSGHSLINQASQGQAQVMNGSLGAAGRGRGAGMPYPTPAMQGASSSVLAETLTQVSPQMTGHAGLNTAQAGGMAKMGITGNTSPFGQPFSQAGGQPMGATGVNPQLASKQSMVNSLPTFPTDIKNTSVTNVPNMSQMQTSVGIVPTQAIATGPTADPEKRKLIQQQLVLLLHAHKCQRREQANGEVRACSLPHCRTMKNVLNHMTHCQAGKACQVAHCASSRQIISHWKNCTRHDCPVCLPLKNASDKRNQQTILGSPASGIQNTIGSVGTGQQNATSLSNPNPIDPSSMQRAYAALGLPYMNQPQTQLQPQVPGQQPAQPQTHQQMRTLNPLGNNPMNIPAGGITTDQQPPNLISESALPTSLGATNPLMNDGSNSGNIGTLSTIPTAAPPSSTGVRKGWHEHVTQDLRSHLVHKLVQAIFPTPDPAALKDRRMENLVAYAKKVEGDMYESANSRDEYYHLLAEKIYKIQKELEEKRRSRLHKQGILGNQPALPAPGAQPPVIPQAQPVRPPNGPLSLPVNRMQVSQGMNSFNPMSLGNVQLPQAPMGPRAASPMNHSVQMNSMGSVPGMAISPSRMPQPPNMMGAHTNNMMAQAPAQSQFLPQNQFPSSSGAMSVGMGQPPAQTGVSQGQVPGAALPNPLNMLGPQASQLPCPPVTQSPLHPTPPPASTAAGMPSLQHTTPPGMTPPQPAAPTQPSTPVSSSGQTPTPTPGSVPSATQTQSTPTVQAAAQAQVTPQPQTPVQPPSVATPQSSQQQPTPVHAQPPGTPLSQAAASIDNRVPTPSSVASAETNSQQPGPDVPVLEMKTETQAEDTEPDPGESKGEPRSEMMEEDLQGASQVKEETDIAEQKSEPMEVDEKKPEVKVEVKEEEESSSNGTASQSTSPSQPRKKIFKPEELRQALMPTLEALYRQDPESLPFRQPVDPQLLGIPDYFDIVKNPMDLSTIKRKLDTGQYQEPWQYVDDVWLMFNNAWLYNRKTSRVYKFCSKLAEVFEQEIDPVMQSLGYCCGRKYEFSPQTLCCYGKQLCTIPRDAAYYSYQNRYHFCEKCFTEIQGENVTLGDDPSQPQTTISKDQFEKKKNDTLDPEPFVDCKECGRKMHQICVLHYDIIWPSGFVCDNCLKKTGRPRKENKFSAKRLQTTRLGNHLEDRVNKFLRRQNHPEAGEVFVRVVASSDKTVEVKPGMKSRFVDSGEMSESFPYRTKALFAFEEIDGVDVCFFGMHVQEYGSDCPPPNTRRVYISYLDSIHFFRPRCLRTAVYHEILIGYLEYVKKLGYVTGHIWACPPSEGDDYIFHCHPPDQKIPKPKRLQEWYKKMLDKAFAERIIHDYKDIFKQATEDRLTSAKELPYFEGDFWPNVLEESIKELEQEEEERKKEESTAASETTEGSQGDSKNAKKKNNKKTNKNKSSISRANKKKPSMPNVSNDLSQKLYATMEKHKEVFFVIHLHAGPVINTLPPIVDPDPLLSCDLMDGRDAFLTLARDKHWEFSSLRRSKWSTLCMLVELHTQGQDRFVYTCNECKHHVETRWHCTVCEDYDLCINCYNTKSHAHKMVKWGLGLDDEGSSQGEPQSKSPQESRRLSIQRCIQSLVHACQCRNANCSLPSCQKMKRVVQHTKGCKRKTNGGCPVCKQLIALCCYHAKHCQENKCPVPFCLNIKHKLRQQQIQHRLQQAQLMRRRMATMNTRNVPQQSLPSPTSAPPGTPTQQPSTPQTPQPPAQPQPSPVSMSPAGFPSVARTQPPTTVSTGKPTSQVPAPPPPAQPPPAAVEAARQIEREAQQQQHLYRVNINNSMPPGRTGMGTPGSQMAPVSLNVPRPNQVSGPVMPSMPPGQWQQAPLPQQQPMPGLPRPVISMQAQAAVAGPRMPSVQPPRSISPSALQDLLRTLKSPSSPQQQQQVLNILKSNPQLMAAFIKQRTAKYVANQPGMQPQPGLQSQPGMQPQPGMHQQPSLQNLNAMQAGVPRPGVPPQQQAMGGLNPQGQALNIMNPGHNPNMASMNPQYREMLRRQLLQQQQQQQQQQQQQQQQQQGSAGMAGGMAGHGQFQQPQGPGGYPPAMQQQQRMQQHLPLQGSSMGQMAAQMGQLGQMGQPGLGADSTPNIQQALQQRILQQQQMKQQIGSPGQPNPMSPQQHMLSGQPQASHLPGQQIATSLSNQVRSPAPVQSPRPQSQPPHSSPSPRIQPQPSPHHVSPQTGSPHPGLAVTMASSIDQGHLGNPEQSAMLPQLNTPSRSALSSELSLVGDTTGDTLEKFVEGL

Row | DC50 (CBP) | Dmax (CBP) | Dmax (p300) | DC50 (p300) | SMILES
1 | > 1000 nM | < 20% | > 80% | < 1 nM | Cc1cc2c(N3CCCc4nc(-c5ccc(C(=O)NCC#Cc6cc7c(C8CCC(=O)NC8=O)cccc7o6)nc5)ncc43)nc(N3CC(C)(O)C3)cc2n(C)c1=O (stereo not drawn) [Example B168, N-(3-(4-(2,6-dioxopiperidin-3-yl)benzofuran-2-yl)prop-2-yn-1-yl)-5-(5-(7-(3-hydroxy-3-methylazetidin-1-yl)-1,3-dimethyl-2-oxo-1,2-dihydro-1,6-naphthyridin-5-yl)-5,6,7,8-tetrahydropyrido[3,2-d]pyrimidin-2-yl) picolinamide]
2 | 1 to 9.9 nM | 40 to 59% | > 80% | < 1 nM | Cc1cc2c(N3CCCc4cc(-c5ccc(C(=O)NCC#Cc6cc7c(C8CCC(=O)NC8=O)cccc7o6)nc5)ncc43)cc(C3CCOCC3)nc2n(C)c1=O (stereo not drawn) [Example B169, 5-(1-(6,8-dimethyl-7-oxo-2-(tetrahydro-2H-pyran-4-yl)-7,8-dihydro-1,8-naphthyridin-4-yl)-1,2,3,4-tetrahydro-1,7-naphthyridin-6-yl)-N-(3-(4-(2,6-dioxopiperidin-3-yl)benzofuran-2-yl)prop-2-yn-1-yl)picolinamide]
3 | > 1000 nM | < 20% | > 80% | 1 to 9.9 nM | CNC(=O)c1c[nH]c2ccc(-c3cccc4cc(-c5ccc(C(=O)NCC#Cc6ccc7occ(C8CCC(=O)NC8=O)c7c6)nc5)ncc34)cc12 (stereo not drawn) [Example C1, 5-(3-(6-((3-(3-(2,6-dioxopiperidin-3-yl)benzofuran-5-yl)prop-2-yn-1-yl)carbamoyl)pyridin-3-yl)isoquinolin-8-yl)-N-methyl-1H-indole-3-carboxamide]
